This assay addresses T1, UCHL1 (Homo sapiens, UniProt P09936).
T1 construct: made in house; host or cells: HEK293T
T1 sequence (P09936 1-223): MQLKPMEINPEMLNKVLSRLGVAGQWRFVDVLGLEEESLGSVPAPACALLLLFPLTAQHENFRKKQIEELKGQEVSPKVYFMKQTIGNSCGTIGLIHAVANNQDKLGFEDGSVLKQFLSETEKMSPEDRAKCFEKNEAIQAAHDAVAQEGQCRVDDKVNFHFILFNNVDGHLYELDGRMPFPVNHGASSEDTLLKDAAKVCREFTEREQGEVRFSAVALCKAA
In words: UCHL1 biochemical IC50 assay (fluorescence polarisation). The following applies: 30 min enzyme/compound pre-incubation at room temp, read after 2 hr incubation, read-out: Activity range (UCHL1 biochemical IC50 assay). From the text:
Biological Activity of Compounds of the Invention Abbreviations: TAMRA carboxytetramethylrhodamine PCR polymerase chain reaction PBS phosphate buffered saline EDTA ethylenediaminetetraacetic acid Tris 2-amino-2-(hydroxymethyl)-1,3-propanediol NP-40 Nonidet P-40, octylphenoxypolyethoxyethanol BSA bovine serum albumin In Vitro UCHL1 Inhibition Assay Expression and Purification of UCHL1
The UCHL1 construct was PCR amplified and cloned into a pFLAG-CMV-6a vector (Sigma-Aldrich) with an N-terminal FLAG tag. HEK293T cells were transfected with FLAG-UCHL1 using TransIT-LT1 transfection reagent (Mirus) according to the manufacturer's instructions. Cells were harvested 40 hours after transfection. Cells were washed once with PBS and scraped in lysis buffer (50 mM Tris, pH 7.5, 150 mM NaCl, 3 mM EDTA, 0.5% NP40, 10% glycerol, 5 mM beta-mercaptoethanol, protease inhibitors (complete mini, Roche) and phosphatase inhibitors (PhosSTOP mini, Roche). Lysates were incubated for 30 min on ice and centrifuged at 1200 rpm for 10 min at 4° C. Soluble supernatant was added to FLAG affinity resin (EZview Rad ANTI-FLAG M2 affinity gel, Sigma-Aldrich) equilibrated in low salt buffer (20 mM Tris, pH 7.5, 150 mM NaCl, 0.5 mM EDTA, 5 mM beta-mercaptoethanol) and incubated at 4° C. for 3 hours rotating. The resin was spun at 2000 rpm for 2 min and the supernatant was removed. The resin was washed two times with low salt buffer and one time with high salt buffer (20 mM Tris, pH 7.5, 500 mM NaCl, 0.5 mM EDTA, 5 mM beta-mercaptoethanol, protease inhibitors (complete mini, Roche) and phosphatase inhibitors (PhosSTOP mini, Roche). To elute the bound UCHL1, elution buffer (10 mM Tris, pH 7.5, 150 mM NaCl, 0.5 mM FDTA, 10% glycerol, 0.5% NP40, 5 mM beta-mercaptoethanol, 0.15 mg/ml 3×FLAG peptide (Sigma-Aldrich)) was added to the resin and incubated at 4° C. for 2.5 hours rotating. The resin was centrifuged at 4000 rpm for 30 seconds, and the supernatant containing purified FLAG-UCHL1 was removed and stored at −80° C.
UCHL1 Biochemical IC50 Assay
Dilution plates were prepared at 21 times the final concentration (2100 μM for a final concentration of 100 µM) in 50% DMSO in a 96-well polypropylene V-bottom plate (Greiner #651201). A typical 8-point dilution series to be 100, 30, 10, 3, 1, 0.3, 0.1, 0.03 μM final. Reactions were performed in duplicate in black 384 well plates (small volume, Greiner 784076) in a final reaction volume of 21 μl. Either 1 μl of 50% DMSO or diluted compound was added to the plate. UCHL1 was diluted in reaction buffer (20 mM Tris, pH 7.5, 100 mM NaCl, 0.05% Tween 20, 0.5 mg/ml BSA, 5 mM—beta mercaptoethanol) to the equivalent of 0.05 μl/well and 10 μl of diluted UCHL1 was added to the compound. Enzyme and compound were incubated for 30 min at room temp. Reactions were initiated by the addition of 50 nM of TAMRA labelled peptide linked to ubiquitin via an iso-peptide bond as fluorescence polarisation substrate. Reactions were read immediately after addition of substrate and following a 2 hr incubation at room temperature. Readings were performed on a Pherastar Plus (BMG Labtech). λ Excitation 540 nm; k Emission 590 nm.

Some results are limits rather than exact numbers.

By IC50 is commonly meant the concentration that gives 50% inhibition. For `COC[C@H]1CCCN1Cc1cnc(NC(=O)[C@H]2CCN(C#N)[C@H]2C)s1` [Example 145, (2S,3S)-1-cyano-N-(5-(((R)-2-(methoxymethyl)pyrrolidin-1-yl)methyl)thiazol-2-yl)-2-methylpyrrolidine-3-carboxamide], the IC50 was in the range of 1 to 10 µM.

As for `N#CN1CCC(C(=O)Nc2ncc(N3CCc4ccccc43)s2)C1` (stereo not shown) [Example 95, 1-cyano-N-(5-(indolin-1-yl)thiazol-2-yl)pyrrolidine-3-carboxamide], the IC50 is < 1 µM.

Take `N#CN1CC[C@H](C(=O)Nc2ncc(-c3ccccn3)s2)C1` [Example 70, (S)-1-cyano-N-(5-(pyridin-2-yl)thiazol-2-yl)pyrrolidine-3-carboxamide]: the IC50 is 1 to 10 µM.

Take `CC(C)Cn1cnc(NC(=O)[C@H]2CCN(C#N)C2)c1` [Example 148, (S)-1-cyano-N-(1-isobutyl-1H-imidazol-4-yl)pyrrolidine-3-carboxamide]: the IC50 lay within 1 to 10 µM.

In the case of `CN(c1ccccc1)c1cnc(NC(=O)C2CCN(C#N)C2)s1` (stereo not shown) [Example 94, 1-cyano-N-(5-(methyl(phenyl)amino)thiazol-2-yl)pyrrolidine-3-carboxamide], the 50% inhibitory concentration (IC50) is < 1 µM.

Turning to `C[C@H]1[C@@H](C(=O)Nc2ncc(-c3ccccc3Cl)s2)CCN1C#N` [Example 77, (2S,3S)—N-(5-(2-chlorophenyl)thiazol-2-yl)-1-cyano-2-methylpyrrolidine-3-carboxamide], the IC50 lay within 1 to 10 µM.

Take `N#CN1CCC(C(=O)Nc2nc(-c3ccccc3)cs2)C1` (stereo not shown) [Example 9, 1-cyano-N-(4-phenylthiazol-2-yl)pyrrolidine-3-carboxamide]: the concentration for half-maximal inhibition (IC50) lay within 10 to 30 µM.

Regarding `N#CN1CC[C@H](C(=O)Nc2cn(-c3ccc(F)cc3)cn2)C1` [Example 150, (S)-1-cyano-N-(1-(4-fluorophenyl)-1H-imidazol-4-yl)pyrrolidine-3-Carboxamide], the IC50 is < 1 µM.

Take `N#CN1CC[C@H](C(=O)Nc2cn(-c3cccc4[nH]ncc34)cn2)C1` [Example 303, (S)-N-(1-(1H-indazol-4-yl)-1H-imidazol-4-yl)-1-cyanopyrrolidine-3-carboxamide]: the IC50 was < 1 µM.

Regarding `N#CN1CC[C@H](C(=O)Nc2cn3cc(Br)ccc3n2)C1` [Example 51, (S)-N-(6-bromoimidazo[1,2-a]pyridin-2-yl)-1-cyano-pyrrolidine-3-carboxamide], the IC50 is < 1 µM.

For `N#CN1CCC(C#N)(C(=O)Nc2ncc(-c3ccccc3)s2)C1` (stereo not shown) [Example 81, 1,3-dicyano-N-(5-phenylthiazol-2-yl)pyrrolidine-3-carboxamide], the IC50 was 1 to 10 µM.

`C[C@@H]1CN(C#N)C[C@H]1C(=O)Nc1ncc(-c2ccccc2)s1` [Example 82, (3S,4S)-1-cyano-4-methyl-N-(5-phenylthiazol-2-yl)pyrrolidine-3-carboxamide]: the IC50 is < 1 µM.

As to `N#CN1CC[C@H](C(=O)Nc2cc(-c3cnc4nccn4c3)ccn2)C1` [Example 255, (S)-1-cyano-N-(4-(imidazo[1,2-a]pyrimidin-6-yl)pyridin-2-yl)pyrrolidine-3-carboxamide], the IC50 is < 1 µM.

Regarding `CC1(C(=O)Nc2cn(-c3ccccc3)cn2)CCN(C#N)C1` (stereo not shown) [Example 79, 1-cyano-3-methyl-N-(1-phenyl-1H-imidazol-4-yl)pyrrolidine-3-carboxamide], the IC50 fell in the range of 10 to 30 µM.

`C[C@@H]1CN(C#N)C[C@H]1C(=O)Nc1ncc(N2CCCCC2)s1` (racemic) [Example 104, (±)-trans-1-cyano-4-methyl-N-(5-(piperidin-1-yl)thiazol-2-yl)pyrrolidine-3-carboxamide]: the IC50 is < 1 µM.

As to `Cc1noc(C)c1-c1ccc2nc(NC(=O)[C@H]3CCN(C#N)C3)cn2c1` [Example 128, (S)-1-cyano-N-(6-(3,5-dimethylisoxazol-4-yl)imidazo[1,2-a]pyridin-2-yl)pyrrolidine-3-carboxamide], the IC50 was < 1 µM.

In the case of `N#CN1CC[C@H](C(=O)Nc2ncc(-c3cccc(-n4ccnc4)c3)s2)C1` [Example 216, (S)-N-(5-(3-(1H-imidazol-1-yl)phenyl)thiazol-2-yl)-1-cyanopyrrolidine-3-carboxamide], the IC50 is < 1 µM.

Consider `N#CN1CC[C@H](C(=O)Nc2cn(-c3ccc(-c4cn[nH]c4)cc3)cn2)C1` [Example 294, (S)-N-(1-(4-(1H-pyrazol-4-yl)phenyl)-1H-imidazol-4-yl)-1-cyanopyrrolidine-3-carboxamide], for which the half-maximal inhibitory concentration (IC50) was < 1 µM.

As to “(S)-1-cyano-N-(isoquinolin-yl)pyrrolidine-3-carboxamide [Example 58]”, the IC50 was in the range of 1 to 10 µM.

For the compound `Cc1cccc2nc(NC(=O)[C@H]3CCN(C#N)C3)sc12` [Example 47, (S)-1-cyano-N-(7-methylbenzo[d]thiazol-2-yl)-pyrrolidine-3-carboxamide], the IC50 is < 1 µM.

As to `C[C@@H](c1ccccc1)n1cnc(NC(=O)[C@H]2CCN(C#N)C2)c1` [Example 166, (S)-1-cyano-N-(1-((S)-1-phenylethyl)-1H-imidazol-4-yl)pyrrolidine-3-carboxamide], the IC50 is < 1 µM.

With `N#CN1CCC(C(=O)Nc2ncc(-c3ccccc3F)s2)C1` (stereo not shown) [Example 3, 1-cyano-N-(5-(2-fluorophenyl)thiazol-2-yl)pyrrolidine-3-carboxamide], the concentration for half-maximal inhibition (IC50) is 1 to 10 µM.

In the case of `CC1CC(C(=O)Nc2ncc(-c3ccccc3)s2)CN1C#N` (mixture of isomers) [Example 88, 1-cyano-5-methyl-N-(5-phenylthiazol-2-yl)pyrrolidine-3-carboxamide], the IC50 lay in the range of 1 to 10 µM.

Take `N#CN1CC[C@H](C(=O)Nc2cccc(-c3ccccc3)n2)C1` [Example 55, (S)-1-cyano-N-(6-phenylpyridin-2-yl)pyrrolidine 3-carboxamide]: the IC50 is 1 to 10 µM.

With `N#CN1CC[C@H](C(=O)Nc2cccc(N3CCCC3)n2)C1` [Example 106, (S)-1-cyano-N-(6-(pyrrolidin-1-yl)pyridin-2-yl)pyrrolidine-3-carboxamide], the IC50 fell in the range of 10 to 30 µM.

On to `COc1cc(-n2cnc(NC(=O)[C@H]3CCN(C#N)C3)c2)ccc1F` [Example 302, (S)-1-cyano-N-(1-(4-fluoro-3-methoxyphenyl)-1H-imidazol-4-yl)pyrrolidine-3-carboxamide], for which the IC50 is < 1 µM.

Take `N#CN1CC[C@H](C(=O)Nc2ncc(-c3ccc(F)c(F)c3)s2)C1` [Example 67, (S)-1-cyano-N-(5-(3,4-difluorophenyl)thiazol-2-yl)pyrrolidine-3-carboxamide]: the 50% inhibitory concentration (IC50) is < 1 µM.

For the compound `COc1cccc(-n2cnc(NC(=O)[C@H]3CCN(C#N)C3)c2)c1` [Example 183, (S)-1-cyano-N-(1-(3-methoxyphenyl)-1H-imidazol-4-yl)pyrrolidine-3-carboxamide], the IC50 is < 1 µM.

With `N#CN1CC[C@H](C(=O)Nc2cc(-c3ccccc3)[nH]n2)C1` [Example 42, (S)-1-cyano-N-(5-phenyl-1H-pyrazol-3-yl)pyrrolidine-3-carboxamide], the IC50 is < 1 µM.

On to `COc1ccccc1-n1cnc(NC(=O)[C@H]2CCN(C#N)C2)c1` [Example 160, (S)-1-cyano-N-(1-(2-methoxyphenyl)-1H-imidazol-4-yl)pyrrolidine-3-carboxamide], for which the half-maximal inhibitory concentration (IC50) is < 1 µM.

Consider `N#Cc1ccc(-c2cnc(NC(=O)[C@H]3CCN(C#N)C3)s2)cc1` [Example 118, (S)-1-cyano-N-(5-(4-cyanophenyl)thiazol-2-yl)pyrrolidine-3-carboxamide], for which the IC50 was < 1 µM.

The record behind these values is patent publication US11472798B2 (Mission Therapeutics Limited, priority 2014, dated 2022).
